Reference: patent US11896707B2, “Cosmetic preparations comprising Daphne extracts” (ETH Zurich, priority 2018, dated 2024)

Experiments:
[1] = tested on: lymphatic endothelial cell (LEC); assay: Stability test: LEC sprouting activity after storage; type: cell-based; conditions: prolonged exposure at 4° C., 25° C. and 50° C. for one week
Description: The D. giraldii extract and daphnetoxin were subjected to stability tests.

[2] = tested on: HDFB: human dermal fibroblast; assay: Toxicity on HDFB; type: cell-based; conditions: FIG. 8
Description: (§1) Toxicity of the extracts according to example 2 was investigated. […] (LEC: lymphatic endothelial cell; HDFB: human dermal fibroblast; HaCaT: immortalized human keratinocyte; BEC: blood endothelial cell). The results are summarized in FIG. 8 and indicate its usefulness in cosmetic applications.

[3] = tested on: HaCaT: immortalized human keratinocyte; assay: Toxicity on HaCaT; type: cell-based; conditions: FIG. 8
Description: as §1

[4] = tested on: lymphatic endothelial cell (LEC); assay: LEC sprouting assay (LEC-covered dextran beads, sprouts per bead); type: cell-based
Description: Stimulation of the lymphatic system: Lymph vessels fulfill an important role in order to maintain the microenvironment surrounding tissue in a constant state by removing unwanted substances present in skin as well as water and protein constantly escaping from blood vessels. […] This action was tested using in vitro test methods. In particular, using a model of sprouting assay developed previously (c.f. ADD Reference SCHULZ MM ET AL., PNAS 2012: PMID 22949700), a library of plant extracts was screened for extracts inducing lymphatic endothelial cell (LEC) sprouting. The key findings were further verified and analysed to characterize the active ingredients. The advantageous effects of the plant extracts were further confirmed by conducting relevant cell proliferation assays, in vitro migration assays and LEC tube formation assays. Given the positive results in all above mentioned assays, one can deduct the positive effect of the plant extracts and the active ingredient thereof, on improving lymphatic vascular function.
After a 24 hour incubation of fluorescently labeled LEC (lymphatic endothelial cell)-covered dextran beads with 10 pg/mL of extracts from a library of 1954 plant-derived samples, sprout formation was assessed by determining the ratio of sprouts per bead. 0.1% DMSO served as a vehicle control. Each extract was tested as 1-plicate and the entire library was screened in two independent replicates.
Sprout formation was assessed by determining the ratio of sprouts per bead. 0.1% DMSO and VEGF-A (20 ng/mL) served as negative and positive controls respectively.
0.1% DMSO served as a vehicle control and VEGF-A (20 ng/mL) as a positive control.

[5] = tested on: LEC: lymphatic endothelial cell; assay: Toxicity on LEC; type: cell-based; conditions: FIG. 8
Description: as §1

[6] = tested on: BEC: blood endothelial cell; assay: Toxicity on BEC; type: cell-based; conditions: FIG. 8
Description: as §1

[7] = tested on: LEC: lymphatic endothelial cell; assay: LEC proliferation in vitro; type: cell-based
Description: Selectivity was examined using D. giraldii extracts. D. giraldii extract (CH3OH) promoted endothelial cell proliferation in vitro. […] At least 2 independent experiments with n=5 were performed for each cell type. LEC: lymphatic endothelial cell; HDFB: human dermal fibroblast; HaCaT: immortalized human keratinocyte; BEC: blood endothelial cell.
Daphnetoxin induced LEC proliferation most potently at 0.03 pM reaching 247±38% of control (0.1% DMSO).

[8] = Stability test by HPLC-UV-MS analysis; type: physicochemical; conditions: storage in DMSO for one week at 50° C.

**Q.** For `C=C(C)[C@]12C[C@@H](C)[C@@]34OC(c5ccccc5)(O[C@@H]1[C@@H]3[C@@H]1O[C@]1(CO)[C@@H](O)[C@]1(O)C(=O)C(C)=C[C@H]14)O2` [Daphnetoxin], which “activity of LEC sprouting after storage” value [1] is on record?
**A.** consistent activity of LEC sprouting

**Q.** What about the “cytotoxic effects on HDFB” value [2] of the same compound?
**A.** did not evoke any cytotoxic effects

**Q.** What about the “cytotoxic effects on HaCaT” value [3] of the same compound?
**A.** did not evoke any cytotoxic effects

**Q.** And the “LEC sprouting, sprouts/bead” value ([4]; at 100 nM, FIG. 7A)?
**A.** 4.05 sprouts/bead

**Q.** What about the “sprouting activity of HPLC fractions (HPLC-based activity profiling)” value ([4]; fraction from D. giraldii dichloromethane extract, FIG. 6) of the same compound?
**A.** main active compound

**Q.** What about the “concentration from which LEC sprouting is significantly induced” value ([4]; further experiment, 6 replicates, FIG. 7A) of the same compound?
**A.** ≥ 10 nM

**Q.** And the “cytotoxic effects on LEC” value [5]?
**A.** did not evoke any cytotoxic effects

**Q.** And the “cytotoxic effects on BEC” value [6]?
**A.** did not evoke any cytotoxic effects

**Q.** What about the “concentration from which LEC proliferation is significantly induced” value ([7]; 6 replicates, FIG. 7B) of the same compound?
**A.** ≥ 0.003 pM

**Q.** What about the “LEC proliferation, specificity” value ([7]; Ex. 8, FIG. 8) of the same compound?
**A.** promoted lymphatic endothelial cell proliferation specifically

**Q.** What about the LEC proliferation ([7]; at 0.03 pM (most potent concentration), FIG. 7B) of the same compound?
**A.** 247±38 % of control (0.1% DMSO)

**Q.** And the “stability by HPLC-UV-MS analysis” value [8]?
**A.** confirms stability
